Test results as given in patent EP1649856A2, “Use of pimecrolimus for selective immunomodulation” (Novartis AG, priority 2001, dated 2002).

Key:
in vivo = assay: in vivo; design: species or system rats; conditions: rat, skin; 2 oral doses of 25 mg/kg in an interval of 2 hours; 6 hours after the last dosing; read-out: skinlblood concentration ratio
Protocol: In another study designed to explore the differences between pimecrolimus and FK506 and to determine whether these differences might be associated with a different tissue distribution, the exposure to pimecrolimus and FK506 in various organs after oral administration were measured. Animals received 2 oral doses of 25 mg/kg in an interval of 2 hours. […] Pimecrolimus was found consistently to have a higher skinlblood concentration ratio than FK506 (2 hours: 7.3 vs. 2.8; 6 hours: 13 vs. 1.6; 24 hours: 36 vs. 6.0). The AUC0-24h in skin calculated for pimecrolimus was twice as high as with FK506.
These distribution characteristics are relevant not only for oral, but also for topical application, as the compound enters systemic circulation after permeation through the skin.

[1] = tested on: SCID mice reconstituted with CD4^+CD45RB^HI T cells; assay: SCID-IBD mouse model, treatment from day 1 for 4 weeks; format: in vivo; conditions: 3 and 10 mg/kg/day p.o., steroid-related
Excerpt: A well-established animal model for IBD exists (see Leach et al., Am. J. Pathol., Vol. 148, No. 5, pp. 1503-1515 (1996), and Powrie et al., Int. Immunol., Vol. 5, No. 11, pp. 1461-1471 (1993)). It is known that the transfer of syngeneic, naive T lymphocytes (CD4^+CD45RB^HI) into SCID mice results in a severe colitis and wasting disease, SCID-IBD. Histopathologically, features of both CD and UC are represented in this model which has been used throughout the 1990s to bring the understanding of the pathoetiology of this disease of immune dysregulation in man to its present status. There is no other animal model of IBD which is considered relevant for the human disease, both in mechanism and in validity of clinical treatment.
In this study, SCID mice reconstituted with CD4^+CD45RB^HI T lymphocytes were used. These mice are known to develop chronic colitis with characteristics similar to human IBD, as described above.
In this study, SCID mice were reconstituted with 2 x 10^5 CD4^+CD45RB^HI T cells and then treated with pimecrolimus (30, 60 and 100 mg/kg/day) or vehicle daily p.o. for 4 weeks. […] BW was monitored throughout. On termination, blood was withdrawn, spleen, mesenteric lymph nodes (MLN) and colon were removed. Serum haptoglobin levels were measured (ELISA), colitis was assessed histologically and lymphocyte and neutrophil numbers were calculated from FACS analysis of blood, spleen and MLN cell suspensions.
In order to determine the efficacy of ASM981 treatment in preventing intestinal mucosal damage in SCID-IBD mice, a histological examination of the colon sections was performed according to defined morphological parameters. All colon sections were assessed according to a scheme awarding degrees of severity governed by the extent of cell infiltration and inflammation with a score of 8 being the maximum.

SMILES | Kp at 6 h (in vivo) | effect on BW [1]
C=CC[C@@H]1/C=C(\C)C[C@H](C)C[C@H](OC)[C@H]2O[C@@](O)(C(=O)C(=O)N3CCCC[C@H]3C(=O)O[C@H](/C(C)=C/[C@@H]3CC[C@@H](O)[C@H](OC)C3)[C@H](C)[C@@H](O)CC1=O)[C@H](C)C[C@@H]2OC [FK506, tacrolimus, reference compound] | 1.6 | 
C[C@@H]1C[C@H]2[C@@H]3CCC4=CC(=O)C=C[C@]4(C)[C@@]3(F)[C@@H](O)C[C@]2(C)[C@@]1(O)C(=O)CO [Dexamethasone, reference compound] |  | accelerated loss in BW
